Read-outs that look alike come from different tables or passages of the source.
Key:
cloned human M1 mAChRs = molecular target: T1, cloned human M1 mAChRs (Homo sapiens, UniProt P11229); assay: M1 mAChR radioligand binding assay ([3H]N-methylscopolamine displacement)
T1 construct: purchased Perkin Elmer; host or cells: stably transfected CHO-K1 cell lines (membrane preparation)
T1 sequence (P11229 1-460): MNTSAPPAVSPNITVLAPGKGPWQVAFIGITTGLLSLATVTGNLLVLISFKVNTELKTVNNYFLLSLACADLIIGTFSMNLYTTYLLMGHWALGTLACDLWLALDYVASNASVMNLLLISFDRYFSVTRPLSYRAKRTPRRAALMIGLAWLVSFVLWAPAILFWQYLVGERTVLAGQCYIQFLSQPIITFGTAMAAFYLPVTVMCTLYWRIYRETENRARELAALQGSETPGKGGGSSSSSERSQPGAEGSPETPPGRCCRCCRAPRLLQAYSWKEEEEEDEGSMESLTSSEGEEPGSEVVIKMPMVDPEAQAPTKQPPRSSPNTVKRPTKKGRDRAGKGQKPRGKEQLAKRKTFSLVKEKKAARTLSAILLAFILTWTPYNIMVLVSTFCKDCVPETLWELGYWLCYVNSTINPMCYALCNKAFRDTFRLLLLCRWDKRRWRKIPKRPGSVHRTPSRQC

CLK1 = test system: CLK1; design: method as in PMID 22673832; settings: cited from earlier work
DYRK1A = test system: DYRK1A; design: method as in PMID 22673832; settings: cited from earlier work
[1] = test system: amyloid β25-35 peptide-induced toxicity in mice; settings: cited from earlier work
[2] = test system: SH-SY5Y neuroblastoma cells; settings: cited from earlier work
[3] = test system: streptozotocin-induced diabetic rats; design: method as in PMID 23415807; settings: cited from earlier work
cholinesterase = test system: cholinesterase; design: method as in PMID 20030514; settings: cited from earlier work
[4] = Cheng-Prusoff from IC50, [3H]N-methylscopolamine 0.2 nM, M1 mAChR membranes from CHO-K1 cells, mean ± SEM (n = 2), read-out: Ki
[5] = displacement of [3H]N-methylscopolamine 0.2 nM, M1 mAChR membranes from CHO-K1 cells, 27 °C, 120 min, mean ± SEM (n = 2), read-out: IC50

| IC50 (cloned human M1 mAChRs; [5]) [µM] | SMILES | IC50 (cloned human M1 mAChRs) [µM] | further results |
| --- | --- | --- | --- |
| 257 ± 27 | COc1cc(-c2cc(=O)c3c(OC)c(OC)c(OC)cc3o2)cc(OC)c1OC [Compound 4, 3',4',5',5,6,7-Hexamethoxyflavone] |  | Ki (cloned human M1 mAChRs; [4]): 107 ± 11 µM |
| 101 ± 6 | COc1cc(O)c2c(=O)c(O)c(-c3ccc(OC)c(O)c3)oc2c1 [Compound 9, 3ʹ,3,5-Trihydroxy-4ʹ,7-dimethoxyflavone] |  | inhibition of CLK1 kinase (CLK1): potent inhibitor; inhibition of DYRK1A kinase (DYRK1A): potent inhibitor; Ki (cloned human M1 mAChRs; [4]): 42 ± 3 µM |
| > 10000 | COc1ccc(-c2cc(=O)c3c(OC)c(OC)c(OC)cc3o2)cc1OC [Compound 3, 3',4',5,6,7-Pentamethoxyflavone] |  |  |
| > 10000 | COc1ccc(-c2oc3cc(OC)c(OC)cc3c(=O)c2O)cc1OC [Compound 10, 3-Hydroxy-3ʹ,4ʹ,6,7-tetramethoxyflavone] |  | melting point: 225 to 226 °C |
| > 10000 | O=c1c(O)c(-c2ccc(O)c(O)c2)oc2cc(O)ccc12 [Compound 8, Fisetin] |  |  |
| > 10000 | COc1cc(OC)c2c(=O)cc(-c3cc(OC)c(OC)c(OC)c3)oc2c1 [Compound 2, 3',4',5',5,7-Pentamethoxyflavone] |  | melting point: 195 °C |
|  | O=c1cc(-c2ccc(O)c(O)c2)oc2cc(O)cc(O)c12 [Compound 6, Luteolin] | 226 ± 14 | effect against amyloid β25-35 peptide-induced toxicity [1]: anti-amnesic effects; Ki (cloned human M1 mAChRs): 94 ± 6 µM; effect on hydrogen peroxide-induced apoptosis [2]: protective effects; effect on cognitive decline [3]: attenuation of cognitive decline; cholinesterase inhibitory activity (cholinesterase): cholinesterase inhibitory activity |
|  | O=c1cc(-c2ccc(O)cc2)oc2cc(O)cc(O)c12 [Compound 5, Apigenin] | > 10000 |  |
|  | COc1cc(OC)c2c(=O)cc(-c3ccc(OC)c(OC)c3)oc2c1 [Compound 1, 3',4',5,7-Tetramethoxyflavone] | > 10000 |  |
| > 10000 | O=c1c(O)c(-c2ccc(O)cc2)oc2cc(O)cc(O)c12 [Compound 11, Kaempferol] |  |  |
|  | O=c1c(O)c(-c2cc(O)c(O)c(O)c2)oc2cc(O)cc(O)c12 [Compound 13, Myricetin] | > 10000 |  |
| > 10000 | O=c1c(O)c(-c2ccc(O)c(O)c2)oc2cc(O)cc(O)c12 [Compound 12, Quercetin] |  |  |

— article PMC6270666, “Flavonoids with M1 Muscarinic Acetylcholine Receptor Binding Activity” (Molecules, 2014)
